BigSolDB 2.1

Fc1c(I)c(F)c(I)c(F)c1I
Conditions	solubility (mole fraction)
in 1,2-dichloroethane, 290.15 K	2.33e-05
in 1,2-dichloroethane, 295.15 K	4.22e-05
in 1,2-dichloroethane, 299.15 K	6.13e-05
in 1,2-dichloroethane, 302.15 K	8.17e-05
in 1,2-dichloroethane, 305.15 K	0.000106
in 1,2-dichloroethane, 308.15 K	0.000131
in 1,2-dichloroethane, 311.15 K	0.000153
in 1,2-dichloroethane, 314.15 K	0.000181
in 1,2-dichloroethane, 317.15 K	0.000207
in 1,2-dichloroethane, 320.15 K	0.000224
in 1,2-dichloroethane, 325.15 K	0.000242
in 1,2-dichloroethane, 330.15 K	0.000263
in 1,4-dioxane, 290.15 K	0.00028
in 1,4-dioxane, 295.15 K	0.000334
in 1,4-dioxane, 299.15 K	0.000387
in 1,4-dioxane, 302.15 K	0.000413
in 1,4-dioxane, 305.15 K	0.000456
in 1,4-dioxane, 308.15 K	0.000506
in 1,4-dioxane, 311.15 K	0.000553
in 1,4-dioxane, 314.15 K	0.000593
in 1,4-dioxane, 317.15 K	0.000641
in 1,4-dioxane, 320.15 K	0.000697
in 1,4-dioxane, 325.15 K	0.000773
in 1,4-dioxane, 330.15 K	0.00088
in THF, 290.25 K	0.00478
in THF, 295.45 K	0.00497
in THF, 299.85 K	0.00511
in THF, 305.15 K	0.00534
in THF, 310.25 K	0.00555
in THF, 315.35 K	0.00578
in THF, 320.15 K	0.00601
in THF, 326.15 K	0.0063
in THF, 330.35 K	0.00648
in acetone, 290.15 K	2.02e-05
in acetone, 295.15 K	3.22e-05
in acetone, 299.15 K	4.55e-05
in acetone, 302.15 K	5.89e-05
in acetone, 305.15 K	7.48e-05
in acetone, 308.15 K	9.01e-05
in acetone, 311.15 K	0.000107
in acetone, 314.15 K	0.000127
in acetone, 317.15 K	0.000144
in acetone, 320.15 K	0.000162
in acetone, 325.15 K	0.000182
in acetone, 330.15 K	0.000202
in acetonitrile, 290.35 K	0.00382
in acetonitrile, 295.85 K	0.00415
in acetonitrile, 301.55 K	0.00469
in acetonitrile, 306.95 K	0.00536
in acetonitrile, 310.15 K	0.00568
in acetonitrile, 316.95 K	0.00636
in acetonitrile, 321.55 K	0.00722
in acetonitrile, 327.35 K	0.00842
in acetonitrile, 332.15 K	0.00917
in ethanol, 290.15 K	0.00057
in ethanol, 295.15 K	0.000735
in ethanol, 299.15 K	0.000874
in ethanol, 302.15 K	0.000962
in ethanol, 305.15 K	0.00108
in ethanol, 308.15 K	0.00119
in ethanol, 311.15 K	0.00128
in ethanol, 314.15 K	0.00138
in ethanol, 317.15 K	0.00149
in ethanol, 320.15 K	0.0016
in ethanol, 325.15 K	0.00174
in ethanol, 330.15 K	0.00193
in ethyl acetate, 290.15 K	0.000485
in ethyl acetate, 295.15 K	0.000621
in ethyl acetate, 299.15 K	0.000756
in ethyl acetate, 302.15 K	0.00086
in ethyl acetate, 305.15 K	0.000976
in ethyl acetate, 308.15 K	0.00107
in ethyl acetate, 311.15 K	0.00118
in ethyl acetate, 314.15 K	0.00128
in ethyl acetate, 317.15 K	0.00136
in ethyl acetate, 320.15 K	0.00145
in ethyl acetate, 325.15 K	0.00155
in ethyl acetate, 330.15 K	0.00167
in isopropanol, 291.25 K	0.00214
in isopropanol, 296.35 K	0.00291
in isopropanol, 301.45 K	0.00369
in isopropanol, 306.45 K	0.00432
in isopropanol, 311.45 K	0.00523
in isopropanol, 316.55 K	0.00598
in isopropanol, 321.45 K	0.00681
in isopropanol, 326.85 K	0.00745
in isopropanol, 331.55 K	0.00802
in methanol, 290.15 K	2.24e-05
in methanol, 295.15 K	3.71e-05
in methanol, 299.15 K	5.15e-05
in methanol, 302.15 K	6.58e-05
in methanol, 305.15 K	8.12e-05
in methanol, 308.15 K	9.61e-05
in methanol, 311.15 K	0.00011
in methanol, 314.15 K	0.000121
in methanol, 317.15 K	0.000131
in methanol, 320.15 K	0.00014
in methanol, 325.15 K	0.00015
in methanol, 330.15 K	0.000154
in n-hexane, 289.25 K	0.0059
in n-hexane, 293.55 K	0.00643
in n-hexane, 298.85 K	0.00732
in n-hexane, 303.85 K	0.00818
in n-hexane, 308.95 K	0.00908
in n-hexane, 313.75 K	0.0101
in n-hexane, 318.55 K	0.0116
in n-hexane, 324.25 K	0.0134
in n-hexane, 329.35 K	0.0149
in n-propanol, 291.25 K	0.00216
in n-propanol, 296.35 K	0.00274
in n-propanol, 301.35 K	0.00325
in n-propanol, 306.35 K	0.00366
in n-propanol, 311.65 K	0.00417
in n-propanol, 316.55 K	0.00482
in n-propanol, 321.55 K	0.00531
in n-propanol, 326.45 K	0.00585
in n-propanol, 331.45 K	0.00643
in toluene, 290.15 K	0.000169
in toluene, 295.15 K	0.000217
in toluene, 299.15 K	0.000261
in toluene, 302.15 K	0.000294
in toluene, 305.15 K	0.000329
in toluene, 308.15 K	0.000368
in toluene, 311.15 K	0.000404
in toluene, 314.15 K	0.000444
in toluene, 317.15 K	0.000479
in toluene, 320.15 K	0.000515
in toluene, 325.15 K	0.000573
in toluene, 330.15 K	0.000623
